# Tests used:
# [1] = biological target: T1, recombinant human FLAP protein (Homo sapiens, UniProt P20292); assay: FLAP binding assay (Scintillation Proximity Assay, displacement of [125I]L-691,831); conditions: read-out: FLAP SPA IC50
# T1 construct: made in house; host or cells: Sf9 insect cells (100,000xg membrane fraction used)
# T1 sequence (P20292 1-161): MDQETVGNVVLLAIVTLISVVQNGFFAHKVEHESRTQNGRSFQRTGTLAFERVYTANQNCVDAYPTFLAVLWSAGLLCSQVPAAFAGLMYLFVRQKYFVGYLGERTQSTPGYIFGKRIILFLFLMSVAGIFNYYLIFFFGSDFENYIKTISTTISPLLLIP
# Procedure, shortened: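 Scintillation proximity displacement of [125I]L-691,831 (0.08 nM) from membranes of sf9 cells expressing recombinant human FLAP (5 μg/well) on WGA SPA beads, pH 7.5 Tris buffer. Plates shaken 2 h before counting. Non-specific binding defined with 10 μM unlabelled L-691,831.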
# [2] = system: synthesis of LTB4 in human whole blood; assay: human whole blood LTB4 production inhibition assay; format: cell-based; conditions: calcimycin stimulated, read-out: hWB LTB4 IC50
# Procedure, shortened: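 Steps: compound plus heparinized human whole blood, 15 min at 37° C; add calcimycin to 20 μM final; incubate another 30 min at 37° C; centrifuge at low speed and collect plasma; measure LTB4 with a homogeneous time-resolved fluorescence immunoassay.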
IC50 [1] [nM],IC50 [2] [nM],Compound
9.9,61,"CC(C)[C@](C)(c1ccc(-c2ccc(N)nc2)nc1)c1noc(-c2cnn(CC(C)(C)O)c2)n1 [Example 136, 1-(4-{3-[(R)-1-(6′-Amino-[2,3′]bipyridinyl-5-yl)-1,2-dimethyl-propyl]-[1,2,4]oxadiazol-5-yl}-pyrazol-1-yl)-2-methyl-propan-2-ol]"
67,220,"CO[C@H]1CCN(C(=O)Cn2cc(-c3nc([C@@](C)(c4ccc(-c5cnc(N)nc5)nc4)C4CC4)no3)cn2)C1 [Example 121, 2-[4-(3-{(R)-1-[6-(2-Amino-pyrimidin-5-yl)-pyridin-3-yl]-1-cyclopropyl-ethyl}-[1,2,4]oxadiazol-5-yl)-pyrazol-1-yl]-1-((S)-3-methoxy-pyrrolidin-1-yl)-ethanone]"
0.9,24,CC(C)[C@](C)(c1ccc(-c2cnc(N)nc2)nc1)c1noc(-c2cnn(CC(F)F)c2)n1 [Example 44]
42,300,"CN(C)CCn1cc(-c2nc(C(C)(c3ccc(-c4ccc(N)nc4)nc3)C3CC3)no2)cn1 (stereo not drawn) [Example 120, 5-(1-Cyclopropyl-1-{5-[1-(2-dimethylamino-ethyl)-1H-pyrazol-4-yl]-[1,2,4]oxadiazol-3-yl}-ethyl)-[2,3′]bipyridinyl-6′-ylamine]"
76.2,750,"CC(C)[C@@](C)(c1ccc(-c2cnc(N)nc2)nc1)c1noc(-c2cnn(C)c2)n1 [Example 5, 5-(5-{(2S)-3-methyl-2-[5-(1-methyl-1H-pyrazol-4-yl)-1,2,4-oxadiazol-3-yl]butan-2-yl}pyridin-2-yl)pyrimidin-2-amine]"
2.3,65,"CC(C)Nc1cnc(-c2nc(C(C)(c3ccc(-c4cnc(N)nc4)nc3)C(C)C)no2)cn1 (stereo not drawn) [Example 16, 5-[5-(3-methyl-2-{5-[5-(propan-2-ylamino)pyrazin-2-yl]-1,2,4-oxadiazol-3-yl}butan-2-yl)pyridin-2-yl]pyrimidin-2-amine]"
6.3,80,"CC(c1ccc(-c2cnc(N)nc2)nc1)(c1noc(-c2cn[nH]c2)n1)C1CC1 (stereo not drawn) [Example 64, 5-(5-{1-cyclopropyl-1-[5-(1H-pyrazol-4-yl)-1,2,4-oxadiazol-3-yl]ethyl}pyridin-2-yl)pyrimidin-2-amine]"
300,3300,"CN(C)C(=O)Cn1cc(-c2nc([C@](C)(c3ccc(-c4cnc(N)cn4)nc3)C3CC3)no2)cn1 [Example 123, 2-[4-(3-{(S)-1-[6-(5-Amino-pyrazin-2-yl)-pyridin-3-yl]-1-cyclopropyl-ethyl}-[1,2,4]oxadiazol-5-yl)-pyrazol-1-yl]-N,N-dimethyl-acetamide]"
3,48,"CC(C)[C@](C)(c1ccc(-c2cnc(N)nc2)nc1)c1noc(-c2cnn(CC(=O)N(C)C)c2)n1 [Example 61, 2-[4-(3-{(2R)-2-[6-(2-aminopyrimidin-5-yl)pyridin-3-yl]-3-methylbutan-2-yl}-1,2,4-oxadiazol-5-yl)-1H-pyrazol-1-yl]-N,N-dimethylacetamide]"
10,74,"CC(C)C(C)(c1ccc(-c2cnc(N)nc2)nc1)c1noc(-c2cnn(CC(C)(C)O)c2)n1 (stereo not drawn) [Example 2, 1-[4-(3-{2-[6-(2-aminopyrimidin-5-yl)pyridin-3-yl]-3-methylbutan-2-yl}-1,2,4-oxadiazol-5-yl)-1H-pyrazol-1-yl]-2-methylpropan-2-ol]"
8.3,210,"CCNc1ccc(-c2nc(C(C)(c3ccc(-c4cnc(N)nc4)nc3)C(C)C)no2)nn1 (stereo not drawn) [Example 42, 6-(3-{2-[6-(2-aminopyrimidin-5-yl)pyridin-3-yl]-3-methylbutan-2-yl}-1,2,4-oxadiazol-5-yl)-N-ethylpyridazin-3-amine]"
15,94,"CNc1cnc(-c2ccc(C(C)(c3noc(-c4cnn(CC(C)(C)O)c4)n3)C3CC3)cn2)cn1 (stereo not drawn) [Example 130, 1-[4-(3-{1-Cyclopropyl-1-[6-(5-methylamino-pyrazin-2-yl)-pyridin-3-yl]-ethyl}-[1,2,4]oxadiazol-5-yl)-pyrazol-1-yl]-2-methyl-propan-2-ol]"
11,590,"CC(C)[C@](C)(c1ccc(-c2ccc(N)nc2)nc1)c1noc(-c2cnc(N3CCNCC3)cn2)n1 [Example 137, 5-{(R)-1,2-Dimethyl-1-[5-(3,4,5,6-tetrahydro-2H-[1,2′]bipyrazinyl-5′-yl)-[1,2,4]oxadiazol-3-yl]-propyl}-[2,3′]bipyridinyl-6′-ylamine]"
65,256,"CC(C)(O)Cn1cc(-c2nc([C@@](C)(c3ccc(-c4cnc(N)c(F)c4)nc3)C3CC3)no2)cn1 [Example 177, 1-(4-{3-[(R)-1-(6′-Amino-5′-fluoro-[2,3′]bipyridinyl-5-yl)-1-cyclopropyl-ethyl]-[1,2,4]oxadiazol-5-yl}-pyrazol-1-yl)-2-methyl-propan-2-ol]"
8.7,86,"C[C@@](c1ccc(-c2cnc(N)nc2)nc1)(c1noc(-c2cn[nH]c2)n1)C1CC1 [Example 117, 5-(5-{(R)-1-Cyclopropyl-1-[5-(1H-pyrazol-4-yl)-[1,2,4]oxadiazol-3-yl]-ethyl}-pyridin-2-yl)-pyrimidin-2-ylamine]"
12.7,230,"CNC(=O)Cn1cc(-c2nc([C@@](C)(c3ccc(-c4cnc(N)nc4)nc3)C(C)C)no2)cn1 [Example 53, 2-[4-(3-{(2R)-2-[6-(2-aminopyrimidin-5-yl)pyridin-3-yl]-3-methylbutan-2-yl}-1,2,4-oxadiazol-5-yl)-1H-pyrazol-1-yl]-N-methylacetamide]"
8.1,19,"CC(C)[C@](C)(c1ccc(-c2cnc(N)nc2)nc1)c1noc(-c2cnn(CC#N)c2)n1 [Example 129, [4-(3-{(R)-1-[6-(2-Amino-pyrimidin-5-yl)-pyridin-3-yl]-1,2-dimethyl-propyl}-[1,2,4]oxadiazol-5-yl)-pyrazol-1-yl]-acetonitrile]"
13,68,"CC(C)[C@](C)(c1ccc(-c2cnc(N)nc2)nc1)c1noc(-c2cnn(CC(=O)N(C)C3CC3)c2)n1 [Example 144, 2-[4-(3-{(R)-1-[6-(2-Amino-pyrimidin-5-yl)-pyridin-3-yl]-1,2-dimethyl-propyl}-1,2,4-oxadiazol-5-yl)-pyrazol-1-yl]-N-cyclopropyl-N-methyl-acetamide]"
21,32,"C[C@@](c1ccc(-c2cnc(N)cn2)nc1)(c1noc(-c2cnn(CC#N)c2)n1)C1CC1 [Example 161, [4-(3-{(R)-1-[6-(5-Amino-pyrazin-2-yl)-pyridin-3-yl]-1-cyclopropyl-ethyl}-[1,2,4]oxadiazol-5-yl)-pyrazol-1-yl]-acetonitrile]"
5,98,"COCCOCCn1cc(-c2nc([C@@](C)(c3ccc(-c4cnc(N)nc4)nc3)C(C)C)no2)cn1 [Example 46, 5-{5-[(2R)-2-(5-{1-[2-(2-methoxyethoxy)ethyl]-1H-pyrazol-4-yl}-1,2,4-oxadiazol-3-yl)-3-methylbutan-2-yl]pyridin-2-yl}pyrimidin-2-amine]"
20.4,> 5000,"CC(C)C(C)(c1ccc(-c2cnc(N)nc2)nc1)c1noc(-c2cnn(CC(C)(C)C(=O)O)c2)n1 (stereo not drawn) [Example 39, 3-[4-(3-{2-[6-(2-aminopyrimidin-5-yl)pyridin-3-yl]-3-methylbutan-2-yl}-1,2,4-oxadiazol-5-yl)-1H-pyrazol-1-yl]-2,2-dimethylpropanoic acid]"
110,290,"CN(C)C(=O)Cn1cc(-c2nc(C(C)(c3ccc(-c4cnc(N)nc4)nc3)C3CC3)no2)cn1 (stereo not drawn) [Example 67, 2-[4-(3-{1-[6-(2-aminopyrimidin-5-yl)pyridin-3-yl]-1-cyclopropylethyl}-1,2,4-oxadiazol-5-yl)-1H-pyrazol-1-yl]-N,N-dimethylacetamide]"
190,2000,"COCCn1cc(-c2nc([C@](C)(c3ccc(-c4cnc(N)nc4)nc3)C3CC3)no2)cn1 [Example 76, 5-{5-[(1S)-1-cyclopropyl-1-{5-[1-(2-methoxyethyl)-1H-pyrazol-4-yl]-1,2,4-oxadiazol-3-yl}ethyl]pyridin-2-yl}pyrimidin-2-amine]"
52,850,"C[C@@](c1ccc(-c2ccc(N)nc2)nc1)(c1noc(-c2cnn(C(CO)CO)c2)n1)C1CC1 [Example 114, 2-(4-{3-[(R)-1-(6′-Amino-[2,3′]bipyridinyl-5-yl)-1-cyclopropyl-ethyl]-[1,2,4]oxadiazol-5-yl}-pyrazol-1-yl)-propane-1,3-diol]"
230,980,"Cn1cc(-c2nc([C@](C)(c3ccc(-c4cnc(N)nc4)nc3)C3CC3)no2)cn1 [Example 58, 5-(5-{(1S)-1-cyclopropyl-1-[5-(1-methyl-1H-pyrazol-4-yl)-1,2,4-oxadiazol-3-yl]ethyl}pyridin-2-yl)pyrimidin-2-amine]"
24,80,"COCCn1cc(-c2nc(C(C)(c3ccc(-c4cnc(N)nc4)nc3)C3CC3)no2)cn1 (stereo not drawn) [Example 68, 5-[5-(1-cyclopropyl-1-{5[1-(2-methoxyethyl)-1H-pyrazol-4-yl]-1,2,4-oxadiazol-3-yl}ethyl)pyridin-2-yl]pyrimidin-2-amine]"
450,483,"Cc1nc(N)ncc1-c1ccc(C(C)(c2noc(-c3cnn(CC(C)(C)O)c3)n2)C2CC2)cn1 (stereo not drawn) [Example 179, 1-[4-(3-{1-[6-(2-Amino-4-methyl-pyrimidin-5-yl)-pyridin-3-yl]-1-cyclopropyl-ethyl}-[1,2,4]oxadiazol-5-yl)-pyrazol-1-yl]-2-methyl-propan-2-ol]"
